Assay results published in patent US8940900B2, “2,2,2-tri-substituted acetamide derivatives as glucokinase activators, their process and pharmaceutical application” (Advinus Therapeutics Private Limited, priority 2007, dated 2015).

Columns and labels:
[1] = target: T1, purified human recombinant GK (Homo sapiens, UniProt P35557); assay: Glucokinase activity, coupled enzymatic assay (NADH absorbance at 340 nm); type: biochemical; details: 5 mM glucose; read-out: EC50 values for GK activation at 5 mM Glucose conc
T1 sequence (P35557 1-465): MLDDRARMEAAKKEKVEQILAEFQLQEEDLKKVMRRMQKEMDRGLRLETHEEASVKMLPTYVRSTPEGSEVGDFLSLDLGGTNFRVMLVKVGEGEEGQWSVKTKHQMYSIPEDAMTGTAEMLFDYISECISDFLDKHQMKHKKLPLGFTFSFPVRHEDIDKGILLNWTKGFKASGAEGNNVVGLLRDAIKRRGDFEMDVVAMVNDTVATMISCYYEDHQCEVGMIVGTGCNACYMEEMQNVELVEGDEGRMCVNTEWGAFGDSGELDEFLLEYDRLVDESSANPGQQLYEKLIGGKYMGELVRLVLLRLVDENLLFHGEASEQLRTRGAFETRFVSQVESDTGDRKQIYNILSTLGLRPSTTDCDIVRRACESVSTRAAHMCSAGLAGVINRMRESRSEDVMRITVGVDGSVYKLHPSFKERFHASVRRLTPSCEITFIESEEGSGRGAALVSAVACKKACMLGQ
Description: (§1) Glucokinase (GK) activity, in vitro, has been measured using a coupled enzymatic assay (Ref: Hariharan et al (1997) Diabetes 46: 11-16). GK catalyzes the first step, the conversion of glucose to glucose-6-phosphate (G6P) in the presence of ATP. G6P in turn is converted by glucose-6-phosphate dehydrogenase (G6PD) to 6-phosphogluconate, a process that requires NAD, resulting in NADH formation. Since the GK-catalyzed step is the rate-limiting step of this coupled enzymatic process, the rate of accumulation of 6-phosphogluconate and NADH is directly proportional to the rate of glucose phosphorylation by GK. The rate of the GK-catalyzed reaction can therefore be measured by monitoring the increase in NADH absorbance at 340 nm.
(§2) The assay is carried out according to the protocol outlined in Hariharan et al (1997), Diabetes 46: 11-16. Briefly, the test compounds are incubated in a reaction mix containing 25 mM HEPES (pH 7.2), 10 mM MgCl2, 100 mM KCl, 5 mM ATP, 2 mM DTT, 0.5 mM NAD, 1 U/ml Leuconostoc mesenteroides G6PD, 0.3 U/ml of purified human recombinant GK, and different concentrations of glucose. Enzymatic activity is calculated from the initial reaction velocity, measured from the change in NADH absorbance as a function of time.
Compounds described in formula (I), in concentration ranges from 1.0 nM to 500 μM, are tested in purified human recombinant Glucokinase assay described above.
A compound is considered to be a glucokinase activator if it, in its testable range of concentrations, yields a higher rate of glucose phosphorylation than in its absence.

[2] = target: T1, purified human recombinant GK; assay: Characterization of partial glucokinase activators: dose dependent effect on % ΔS0.5 of glucokinase for glucose; type: biochemical; details: for EC50: sigmoidal fit of % ΔS0.5 vs log concentration, read-out: EC50 (measured against % ΔS0.5); for Classification as partial or full GK activator: compared to Ro-28-1675, partial = S0.5 shift between 20% and 90%, full = 90% or more
Experimental: The ΔS0.5 is then normalized to a percent scale, where the S0.5 in the vehicle control is set to 0% and 0 mM glucose is set to 100%. […] The EC50 of % change in S0.5 is obtained from the sigmoidal fit of the data.
The change in the S0.5 of glucokinase (ΔS0.5) for glucose in the presence of Examples A11, O15 and J1 is calculated by subtracting the S0.5 at each concentration of each Example from the S0.5 in the vehicle control. The ΔS0.5 is then normalized to a percent scale, where the S0.5 in the vehicle control is set to 0% and 0 mM glucose is set to 100%. The % ΔS0.5 is then plotted against the log of the concentration of each Example.
FIG. 2B illustrates such a derived plot, taking S0.5 data from FIG. 2A.
as §1, §2
Compounds of interest are tested in GK assay to monitor dose dependent effect on Glucokinase activation (in kinetic mode), as described above, at various glucose concentration.

primary rat hepatocytes = assay: Glycogen synthesis in primary rat hepatocytes; type: cell-based; details: 3 hours, over DMSO control
Experimental: Primary hepatocytes are collected from male Wistar rats, and tested for viability by trypan blue exclusion. […] The medium is then replaced with fresh MEM (serum-free) containing 2 μCi/ml of D-[U^14C]-Glucose along with 10 μM of the compound in a final DMSO concentration of 0.1%. The final glucose concentration is brought to 10 mM by the addition of D-Glucose (MEM already contains 5 mM glucose). The cells are incubated for 3 hours at 37° C. […] After another round of centrifugation, the supernatant is removed, and the pellet containing the precipitated glycogen is dried overnight. De novo synthesized glycogen is estimated in a scintillation counter (MicroBeta Trilux, Perkin Elmer), and expressed as fold increase over DMSO control.
The protocol for isolation of primary rat hepatocytes is based on the method described in “Methods in Enzymology, Vol. III. pp 34-50. Ed. by S. P. Colowick and N. O. Kaplan.
Compounds described in formula (I), in concentration ranges from 1.0 nM to 500 μM, are tested in glycogen synthesis assay described above.

[3] = animal efficacy models; PSN-GK1 at higher dose; cited from earlier work
[4] = Table 4, partial glucokinase activators
[5] = Table 3, vehicle S0.5 = 0%, 0 mM glucose = 100%

## 2-(2,4-Difluoro-phenoxy)-2-methyl-N-(1H tetrazol-5-yl)-propionamide [Example A27]
[1]
  EC50: 7 µM

## CC(C)(Oc1ccc2ccccc2c1)C(=O)Nc1nccs1 [Example A5, 2-Methyl-2-(naphthalen-2-yloxy)-N-thiazol-2-yl-propionamide]
other
  melting point: 117 to 118 °C

## CC(C)(Oc1ccc2c(c1)OCO2)C(=O)Nc1ncc(Cl)s1 [Example A10, 2-(Benzo[1,3]dioxol-5-yloxy)-N-(5-chloro-thiazol-2-yl)-2-methyl-propionamide]
[1]
  EC50: 2.2 µM
[2]; [4]
  Emax: 75%

## CC(C)(Oc1ccc(F)cc1F)C(=O)Nc1ncc(Cl)s1 [Example A11, N-(5-Chloro-thiazol-2-yl)-2-(2,4-difluoro-phenoxy)-2-methyl-propionamide]
[1]
  EC50: 1.8 µM
[2]; Table 3
  EC50: 1.25 µM
[2]; [5]
  Emax: 7%
[2]
  Classification as partial or full GK activator: partial GK activators

## CC(C)(Oc1ccc2[nH]ccc2c1)C(=O)Nc1ncc(Cl)s1 [Example A17, N-(5-Chloro-thiazol-2-yl)-2-(1H-indol-5-yloxy)-2-methyl-propionamide]
Primary rat hepatocytes; Table 2, 10 mM glucose
  Fold increase in glycogen synthesis at 10 μM Compound: 2.9 fold

## CC(C)(Oc1ccc(F)cc1F)C(=O)Nc1ncc(F)s1 [Example A22, 2-(2,4-Difluoro-phenoxy)-N-(5-fluoro-thiazol-2-yl)-2-methyl-propionamide]
Primary rat hepatocytes; Table 5, 10 mM glucose
  Fold increase in glycogen synthesis at 10 μM Compound: 2.3 fold

## CCC(C)(Oc1ccc(F)cc1F)C(=O)Nc1ncc(Cl)s1 (stereo not shown) [Example G7, N-(5-Chloro-thiazol-2-yl)-2-(2,4-difluoro-phenoxy)-2-methyl-butyramide]
[1]
  EC50: 7.1 µM
[2]; [4]
  Emax: 60%

## CCC(C)(Oc1ccc(F)cc1F)C(=O)Nc1nc(CC(=O)O)cs1 (stereo not shown) [Example H1, {2-[2-(2,4-Difluoro-phenoxy)-2-methyl-butyrylamino]-thiazol-4-yl}-acetic acid]
other
  melting point: 148 to 149 °C

## CC(C)(Oc1ccc(F)cc1F)C(=O)Nc1nc(CC(=O)Nc2ccc(F)cc2)cs1 [Example J1, 2-(2,4-Difluoro-phenoxy)-N-{4-[(4-fluoro-phenylcarbamoyl)-methyl]-thiazol-2-yl}-2-methyl-propionamide]
[1]
  EC50: 4.5 µM
[2]; Table 3
  EC50: 3 µM
[2]; [5]
  Emax: 55%
[2]
  Classification as partial or full GK activator: partial GK activators

## CC(C)(Oc1ccc2c(c1)OCO2)C(=O)Nc1nc(CC(=O)Nc2ccc(F)cc2)cs1 [Example J2, 2-(Benzo[1,3]dioxol-5-yloxy)-N-{4-[(4-fluoro-phenylcarbamoyl)-methyl]-thiazol-2-yl}-2-methyl-propionamide]
Primary rat hepatocytes; Table 5, 10 mM glucose
  Fold increase in glycogen synthesis at 10 μM Compound: 1.8 fold
[2]; [4]
  Emax: 40%

## CC(C)(Oc1ccc(F)cc1F)C(=O)Nc1nc(CC(=O)Nc2ccc(F)cc2)c(Cl)s1 [Example J4, N-{5-Chloro-4-[(4-fluoro-phenylcarbamoyl)-methyl]-thiazol-2-yl}-2-(2,4-difluoro-phenoxy)-2-methyl-propionamide]
[2]; [4]
  Emax: 50%

## CC(C)(Oc1cccc(C(=O)O)c1)C(=O)Nc1nccs1 [Example K1, 3-[1-Methyl-1-(thiazol-2-ylcarbamoyl)-ethoxy]-benzoic acid]
other
  melting point: 166 to 168 °C

## CC(Oc1ccc(F)cc1F)(C(=O)Nc1nccs1)c1ccc(S(C)(=O)=O)cc1 (stereo not shown) [Example O1, 2-(2,4-Difluoro-phenoxy)-2-(4-methanesulfonyl-phenyl)-N-thiazol-2-yl-propionamide]
other
  melting point: 89 to 90 °C

## CSc1ccc(OC(C)(C(=O)Nc2ncc(Cl)s2)c2ccc(S(C)(=O)=O)cc2)cc1 (stereo not shown) [Example O4, N-(5-Chloro-thiazol-2-yl)-2-(4-methanesulfonyl-phenyl)-2-(4-methylsulfanyl-phenoxy)-propionamide]
other
  melting point: 67 to 68 °C

## CC(Oc1ccc(F)cc1F)(C(=O)Nc1ncc(F)s1)c1ccc(S(C)(=O)=O)cc1 (stereo not shown) [Example O9, 2-(2,4-Difluoro-phenoxy)-N-(5-fluoro-thiazol-2-yl)-2-(4-methanesulfonyl-phenyl)-propionamide]
Primary rat hepatocytes; Table 5, 10 mM glucose
  Fold increase in glycogen synthesis at 10 μM Compound: 2.8 fold

## CC(Oc1ccc(F)cc1F)(C(=O)Nc1ncc(Cl)s1)c1ccc(S(=O)(=O)C2CC2)cc1 (stereo not shown) [Example O15, N-(5-Chloro-thiazol-2-yl)-2-(4-cyclopropanesulfonyl-phenyl)-2-(2,4-difluoro-phenoxy)-propionamide]
[1]
  EC50: 1.8 µM
[2]; Table 3
  EC50: 1.2 µM
[2]; [5]
  Emax: 55%
[2]
  Classification as partial or full GK activator: partial GK activators

## Cc1cnc(NC(=O)C(C)(Oc2ccc(F)cc2F)c2ccc(S(C)(=O)=O)cc2)s1 (stereo not shown) [Example O16, 2-(2,4-Difluoro-phenoxy)-2-(4-methanesulfonyl-phenyl)-N-(5-methyl-thiazol-2-yl)-propionamide]
[1]
  EC50: 5.4 µM

## CC(Oc1ccc(Cl)cc1)(C(=O)Nc1ncc(Cl)s1)c1ccc(S(C)(=O)=O)cc1 (stereo not shown) [Example O18, 2-(4-Chloro-phenoxy)-N-(5-chloro-thiazol-2-yl)-2-(4-methanesulfonyl-phenyl)-propionamide]
[2]; [4]
  Emax: 60%

## CC(Oc1ccc(F)cc1F)(C(=O)Nc1ncc(Cl)s1)c1ccc(S(C)(=O)=O)cc1 (stereo not shown) [Example O19, N-(5-Chloro-thiazol-2-yl)-2-(2,4-difluorophenoxy)-2-(4-methanesulfonyl-phenyl)-propionamide]
[2]; [4]
  Emax: 75%

## CC(Oc1ccc(F)c(F)c1)(C(=O)Nc1ncc(Cl)s1)c1ccc(S(C)(=O)=O)cc1 (stereo not shown) [Example O20, N-(5-Chloro-thiazol-2-yl)-2-(3,4-difluoro-phenoxy)-2-(4-methanesulfonyl-phenyl)-propionamide]
[2]; [4]
  Emax: 50%

## CC(Oc1ccc(F)cc1F)(C(=O)Nc1nc(CC(=O)O)c(Cl)s1)c1ccc(S(C)(=O)=O)cc1 (stereo not shown) [Example P1, {5-Chloro-2-[2-(2,4-difluoro-phenoxy)-2-(4-methanesulfonyl-phenyl)-propionylamino]-thiazol-4-yl}-acetic acid]
[1]
  EC50: 7 µM
other
  melting point: 109 to 111 °C

## CC(Oc1ccc(F)cc1F)(C(=O)Nc1ccc(C(=O)O)cn1)c1ccc(S(C)(=O)=O)cc1 (stereo not shown) [Example P4, 6-[2-(2,4-Difluoro-phenoxy)-2-(4-methanesulfonyl-phenyl)-propionylamio]-nicotinic acid]
[1]
  EC50: > 14 µM

## CC(Oc1ccc(F)cc1F)(C(=O)Nc1ccc(C(=O)O)cn1)c1ccc(S(=O)(=O)C2CC2)cc1 (stereo not shown) [Example P5, 6-[2-(4-Cyclopropanesulfonyl-phenyl)-2-(2,4-difluoro-phenoxy)-propionylamino]-nicotinic acid]
Primary rat hepatocytes; Table 2, 10 mM glucose
  Fold increase in glycogen synthesis at 10 μM Compound: 3.2 fold

## CS(=O)(=O)c1ccc([C@@H](CC2CCCC2)C(=O)Nc2nccs2)cc1 [Ro-28-1675]
[3]
  Hypoglycemia: cause hypoglycemia in animal efficacy models
